Data as given in patent US20240025904A1, “PDE9 INHIBITORS FOR TREATING CARDIAC FAILURE” (Cardurion Pharmaceuticals, Inc., priority 2020, published 2024).
“And” between values parts separate entries of the source, which are not always exact repeats. Identical values can stand only once.

Columns and labels:
[1] = test system: aldosterone-infused and unilateral nephrectomized mouse (neph-aldo model of HFpEF); test: Uninephrectomy + d-aldosterone infusion + 1% NaCl mouse model of HFpEF; format: in vivo
Text: Mice subjected to uninephrectomy and aldosterone infusion for 4 to 6 weeks, accompanied by 1% NaCl intake, develop HFpEF with moderate hypertension, concentric left ventricle hypertrophy, pulmonary congestion, and echocardiographic evidence of diastolic dysfunction while maintaining a normal/preserved LVEF. These mice also show exercise impairment. At the molecular level, left ventricle tissue from these mice show an increase in natriuretic peptides, cardiac size and fibrosis, as well as an increase in the oxidative stress.
Model 1: eight-week-old C57BL/6J male mice were anesthetized with 100 mg/kg ketamine and 10 mg/kg xylazine intraperitoneally. All mice underwent unilateral nephrectomy and then will receive a continuous infusion of d-aldosterone (0.30 μg/h) via osmotic minipumps. All mice were maintained on 1.0% sodium chloride drinking water. Mice were randomized to receive either vehicle or Compound 1 at 60 mg/kg/day or 100 mg/kg/day by oral gavage for 4 or 6 weeks (36 mice, N=6/group). The mice were housed in a standard-temperature, 12 h/12 h light/dark controlled room, with water and standard rodent diet available ad libitum. Mice were euthanized 4 or 6 weeks after the beginning of the treatment. It has been shown that administering of 60 mg/kg of Compound 1 in mice is equivalent to administering about 4.8 mg/kg of Compound 1 in adult human subjects. Similarly, it has been shown that administering 100 mg/kg of Compound 1 in mice is equivalent to administering about 8.1 mg/kg of Compound 1 in human subjects.
(§1) Methods: Cardiac and renal responses to Compound 1 (60 mg/kg, 100 mg/kg) compared with vehicle were examined over 6-8 weeks in 3 adult male mouse models of HFpEF (1.5 mg/kg/d angiotensin-II infusion [ang-II]; uninephrectomy+0.30 μg/h d-aldosterone infusion+1% NaCl drinking water [neph-aldo]; and db/db [db]). Phenotyping included wheat germ agglutinin staining for cardiomyocyte cross-sectional area (CSA); RT-PCR for myocardial PDE9, natriuretic peptide, inflammatory and fibrosis marker transcript abundances; ELISA for plasma natriuretic peptides; and urinary albumin to creatinine ratio (UACR).
(§2) P-value from Wilcoxon rank-sum test. Ang-II model (8-week old C57BL/6 mice were infused with ang-II at […] for 6 weeks with concomitant Compound 1 or vehicle). Neph+d-aldo+1% NaCl model (8-week old C57BL/6 mice underwent uninephrectomy then were infused with d-aldosterone for 6 weeks with ad-libitum 1% NaCl drinking water while receiving concomitant Compound 1 or vehicle). db model (20-week old BKS.Cg-Dock7m+/+Leprdb/J received vehicle or Compound 1 for 8 weeks). mRNA expression levels were normalized to GAPDH, Rpl4 and Eef1e1.

[2] = test system: db/db mouse; test: db/db mouse model of HFpEF; format: in vivo
Text: The db/db leptin receptor-deficient mouse has a point mutation in the diabetes (db) gene encoding the leptin receptor, which spontaneously causes morbid obesity accompanied by severe hyperglycemia secondary to type 2 diabetes. […] At the histological level, these mice hearts have enlarged cardiomyocytes, evidence of fibrosis, and capillary rarefaction. The db/db mice appear to represent the obese/metabolic HFpEF phenotype, with evidence of HF, whereas LVEF is preserved.
Model 3: twenty-week old male diabetic-prone, obese db/db mice of the BKS.Cg-Dock7m+/+Leprdb/J strain will be randomly assigned (30 mice, n=10/group) to receive vehicle or chronic Compound 1 treatment at 60 mg/kg/day or 100 mg/kg/day. Treatment will be carried for 8 weeks using subcutaneous osmotic pumps. The mice will be housed in a standard-temperature, 12 h/12 h light/dark controlled room, with water and standard rodent diet available ad libitum.
as §1, §2

[3] = test system: angiotensin II-infused mouse (Ang-II model of HFpEF); test: Angiotensin II infusion mouse model of HFpEF; format: in vivo
Text: C57BL/6J mice develop compensatory concentric hypertrophy and fibrosis in response to angiotensin II. Pulmonary congestion, as well as exercise intolerance, are evident and seem to be related to angiotensin II-induced skeletal muscle abnormalities, including impaired mitochondrial function and skeletal muscle atrophy. In summary, if strain and dosage are optimized to mirror the human HFpEF phenotype, angiotensin II infusion appears to be a relevant HFpEF model.
Model 2: eight-week-old C57BL/6J male mice were anesthetized with isoflurane and subcutaneously implanted with an osmotic minipump to continuously infuse angiotensin II in 10 mM acetic acid at a dose of 1.5 mg/kg per day over a period of 4 to 6 weeks. Experimental animal groups were randomly assigned to receive either vehicle or Compound 1 at 60 mg/kg/day or 100 mg/kg/day by oral gavage for 4 or 6 weeks (36 mice, N=6/group) over the same time period. The mice were housed in a standard-temperature, 12 h/12 h light/dark controlled room, with water and standard rodent diet available ad libitum. Mice were euthanized 4 or 6 weeks after angiotensin-II infusion. It has been shown that administering of 60 mg/kg of Compound 1 in mice is equivalent to administering about 4.8 mg/kg of Compound 1 in adult human subjects. Similarly, it has been shown that administering 100 mg/kg of Compound 1 in mice is equivalent to administering about 8.1 mg/kg of Compound 1 in human subjects.
as §1, §2

[4] = test system: patient; test: Administration with food, adverse event profile; format: in vivo; conditions: once a day with food
[5] = test system: adult patients with sickle cell disease; test: IMR-SCD-102 Phase 2a trial, plasma NT-proBNP; format: in vivo, human
Procedure: IMR-SCD-102 is an ongoing Phase 2a randomized double-blind placebo-controlled trial testing Compound 1 (IMR-687) at 50 mg-200 mg daily as monotherapy or 50-100 mg in combination with background hydroxyurea therapy (Compound 1+HU). A protocol amendment later in the study allowed for sample collection and characterization of NT-proBNP levels in the combination cohort (Compound 1+HU versus HU alone). Plasma NT-proBNP was measured in 15 subjects (100% HbSS genotype) at randomization and again at 4 months. A 2:1 randomization schema favoring combination treatment translated to 10 subjects on Compound 1+HU and 5 on HU alone. Baseline, 4-month follow-up, and change in NT-proBNP levels were quantified. Further, whether the change in NT-proBNP level varied according to treatment and baseline NT-proBNP level was tested.

[6] = median, Neph + Aldo model, 6 weeks
[7] = median, Neph + Aldo model, 6 weeks, normalized to GAPDH, Rpl4 and Eef1e1
[8] = median, db/db model, 8 weeks, normalized to GAPDH, Rpl4 and Eef1e1
[9] = median, Ang-II model, 6 weeks, normalized to GAPDH, Rpl4 and Eef1e1

Compound: C[C@@H]1CN(Cc2ncccn2)C[C@H]1c1cn2c(C3CCOCC3)ncc2c(=O)[nH]1 (single isomer, unassigned) [Compound 1]
- heart size and cardiomyocyte hypertrophy ([1]; after 4 weeks of dosing at 60 and 100 mg/kg, FIGS. 2A, 2B): decreases
- ANP and BNP markers of cardiac dysfunction ([1]; dosing with 60 and 100 mg/kg, FIGS. 3A, 3B right side): decreases
- PDE5 and PDE9 expression ([1]; in combination with nephrectomy-aldosterone, FIG. 4B): increased
- heart fibrosis (TGF-ß1 and downstream targets Fibronectin and Collagen type I and III) ([1]; in combination with nephrectomy-aldosterone, FIG. 7): decreases
- markers of myocardial inflammation ([1]; in combination with nephrectomy-aldosterone, FIG. 8B): decreases
- Plasma ANP [1, 6]: 740 pg/mL
- Plasma BNP [1, 6]: 1216 pg/mL
- Urine UACR (urinary albumin to creatinine ratio) [1, 6]: 48.4 µg/mg
- Myocardial mRNA PDE9 ([1]; median, Neph + Aldo model, 6 weeks, Compound 1 60 mg/kg, 100 mg/kg, normalized to GAPDH, Rpl4 and Eef1e1): 3.7
- Myocardial mRNA COL3A1 [1, 7]: 2.6
- Myocardial mRNA IL-1b [1, 7]: 2.5
- Myocardial mRNA NPPA [1, 7]: 4.9
- Myocardial mRNA NPPB [1, 7]: 4.2
- Heart rate and blood pressure, Compound 1 vs vehicle treated mice ([1]; neph-aldo model): did not differ
- reduction of median cardiomyocyte size (CSA) compared with vehicle ([1]; neph-aldo model, Compound 1 60 mg/kg, 100 mg/kg, p<0.003): 58%
- Heart rate and blood pressure, Compound 1 vs vehicle treated mice ([2]; db model): did not differ
- reduction of median cardiomyocyte size (CSA) compared with vehicle ([2]; db model, Compound 1 60 mg/kg, 100 mg/kg, p<0.003): 35%
- Plasma ANP ([2]; median, db/db model, 8 weeks): 714 pg/mL
- Plasma BNP ([2]; median, db/db model, 8 weeks): 830 pg/mL
- Urine UACR (urinary albumin to creatinine ratio) ([2]; median, db/db model, 8 weeks): 132.5 µg/mg
- Myocardial mRNA PDE9 ([2]; median, db/db model, 8 weeks, Compound 1 60 mg/kg, 100 mg/kg, normalized to GAPDH, Rpl4 and Eef1e1): 1.5
- Myocardial mRNA COL3A1 [2, 8]: 1.1
- Myocardial mRNA IL-1b [2, 8]: 3.6
- Myocardial mRNA NPPA [2, 8]: 1.7
- Myocardial mRNA NPPB [2, 8]: 2.2
- heart size and cardiomyocyte hypertrophy ([3]; 6 weeks of dosing at 60 and 100 mg/kg, FIGS. 1A, 1B): decreases
- Heart rate and blood pressure, Compound 1 vs vehicle treated mice ([3]; ang-II model): did not differ
- reduction of median cardiomyocyte size (CSA) compared with vehicle ([3]; ang-II model, Compound 1 60 mg/kg, 100 mg/kg, p<0.003): 54%
- ANP and BNP markers of cardiac dysfunction ([3]; dosing with 60 and 100 mg/kg, FIGS. 3A, 3B left side): decreases
- PDE5 and PDE9 expression ([3]; in combination with Angiotensin II, FIG. 4A): increased
- markers of myocardial inflammation ([3]; in combination with Angiotensin II, FIG. 8A): decreases
- heart fibrosis (TGF-ß1 and downstream targets Fibronectin and Collagen type I and III) ([3]; in combination with Angiotensin II, FIGS. 6A, 6B): decreases
- Plasma ANP ([3]; median, Ang-II model, 6 weeks): 968 pg/mL
- Plasma BNP ([3]; median, Ang-II model, 6 weeks): 2376 pg/mL
- Urine UACR (urinary albumin to creatinine ratio) ([3]; median, Ang-II model, 6 weeks): 95.5 µg/mg
- Myocardial mRNA PDE9 ([3]; median, Ang-II model, 6 weeks, Compound 1 60 mg/kg, 100 mg/kg, normalized to GAPDH, Rpl4 and Eef1e1): 1.7
- Myocardial mRNA COL3A1 [3, 9]: 1.5
- Myocardial mRNA IL-1b [3, 9]: 1.9
- Myocardial mRNA NPPA [3, 9]: 1.4
- Myocardial mRNA NPPB [3, 9]: 2.0
- effect of food on adverse event profile (nausea, emesis, headache) [4]: reduce the adverse event profile dramatically

Compound: NC(=O)NO [HU, hydroxyurea]
- treated subjects with greater than 50% reduction in NT-proBNP levels ([5]; at 4 months): none
- mean 4-month follow-up NT-proBNP level ([5]; plasma, 4 months): 436 pg/mL
- mean NT-proBNP higher at 4 months than baseline ([5]; plasma, 4 months): 27.0% and 27. %
- mean increase of NT-proBNP, baseline to 4 months ([5]; plasma, 4 months): 93 pg/mL
- mean baseline NT-proBNP level ([5]; plasma, at randomization): 343 pg/mL
- average increase in NT-proBNP between baseline and 4 months ([5]; subjects with baseline NT-proBNP ≥400 pg/ml): 28%
